According to patent US10913745B2, “Octahydro-pyrrolo[3,4-c]-pyrrole derivatives and analogs thereof as autotaxin inhibitors” (Hoffmann-La Roche Inc., priority 2013, dated 2021):

Biological target: ATX (human His-tagged) (Homo sapiens (Human), UniProt Q13822)
Assay: Human ATX enzyme inhibition assay (fluorescence quenching, MR121 substrate)
Assay type: biochemical
Conditions: MR121 substrate 1 μM, ATX 30 nM final, 30° C.
Procedure: Human ATX Enzyme Inhibition Assay
ATX inhibition was measured by a fluorescence quenching assay using a specifically labeled substrate analogue (MR121 substrate). To obtain this MR121 substrate, BOC and TBS protected 6-amino-hexanoic acid (R)-3-({2-[3-(2-{2-[2-(2-amino-ethoxy)-ethoxy]-ethoxy}-ethoxy)-propionylamino]-ethoxy}-hydroxy-phosphoryloxy)-2-hydroxy-propyl ester (Ferguson et al., Org Lett 2006, 8 (10), 2023) was labeled with MR121 fluorophore (CAS 185308-24-1, 1-(3-carboxypropyl)-11-ethyl-1,2,3,4,8,9,10,11-octahydro-dipyrido[3,2-b:2′,3′-i]phenoxazin-13-ium) on the free amine of the ethanolamine side and then, after deprotection, subsequently with tryptophan on the side of the aminohexanoic acid. Assay working solutions were made as follows: Assay buffer (50 mM Tris-HCl, 140 mM NaCl, 5 mM KCl, 1 mM CaCl2, 1 mM MgCl2, 0.01% Triton-X-100, pH 8.0; ATX solution: ATX (human His-tagged) stock solution (1.08 mg/mL in 20 mM bicine, pH 8.5, 0.15 M NaCl, 10% glycerol, 0.3% CHAPS, 0.02% NaN3), diluted to 1.4-2.5× final concentration in assay buffer; MR121 substrate solution: MR121 substrate stock solution (800 μM MR121 substrate in DMSO), diluted to 2-5× final concentration in assay buffer. Test compounds (10 mM stock in DMSO, 8 μL) were obtained in 384 well sample plates (Corning Costar #3655) and diluted with 8 μL DMSO. Row-wise serial dilutions were made by transferring 8 μL cpd solution to the next row up to row O. The compound and control solutions were mixed five times and 2 μL were transferred to 384 well assay plates (Corning Costar #3702). Then, 15 μL of 41.7 nM ATX solution was added (30 nM final concentration), mixed five times and then incubated for 15 minutes at 30° C. 10 μL of MR121 substrate solution was added (1 μM final concentration), mixed 30 times and then incubated for 15 minutes at 30° C.

Row | Compound | IC50 [nM]
1 | O=C(OCc1cc(Cl)cc(Cl)c1)N1C[C@@H]2CN(C(=O)c3ccc(-c4nnn[nH]4)cc3)C[C@@H]2C1 [Example 4, (3aR,6aS)-3,5-Dichlorobenzyl 5-(4-(1H-tetrazol-5-yl)benzoyl)hexahydropyrrolo[3,4-c]pyrrole-2(1H)-carboxylate] | 573
2 | CC(=O)Nc1ccc(C(=O)N2C[C@H]3CN(C(=O)OCc4cc(Cl)cc(Cl)c4)C[C@H]3C2)cc1 [Example 2, (3aR,6aS)-3,5-Dichlorobenzyl 5-(4-acetamidobenzoyl)hexahydropyrrolo[3,4-c]pyrrole-2(1H)-carboxylate] | 342
3 | NS(=O)(=O)c1ccc(C(=O)N2C[C@H]3CN(C(=O)CCc4ccc(OC(F)(F)F)cc4)C[C@@H]3C2)cn1 [Example 1.20, 5-{(3 aR,6aR)-5-[3-(4-trifluoromethoxy-phenyl)-propionyl]-hexahydro-pyrrolo[3,4-c]pyrrole-2-carbonyl}-pyridine-2-sulfonic acid amide] | 19
4 | NS(=O)(=O)c1ccc(C(=O)N2C[C@H]3CCN(C(=O)/C=C/c4ccc(OC(F)(F)F)cc4)CC[C@H]3C2)cc1 [Example 1.10, 4-{(3aS,8aR)-6-[(E)-3-(4-trifluoromethoxy-phenyl)-acryloyl]-octahydro-pyrrolo[3,4-d]azepine-2-carbonyl}-benzenesulfonamide] | 2
5 | NS(=O)(=O)c1ccc(C(=O)N2C[C@H]3CN(C(=O)CCc4ccc(OC(F)(F)F)cc4F)C[C@@H]3C2)cc1 [Example 8.09, 4-((3 aR,6aR)-5-(3-(2-fluoro-4-(trifluoromethoxy)phenyl)propanoyl)octahydropyrrolo[3,4-c]pyrrole-2-carbonyl)benzenesulfonamide] | 1
6 | NS(=O)(=O)c1ccc(C(=O)N2C[C@H]3CN(C(=O)/C=C/c4ccc(OC(F)(F)F)cc4)C[C@@H]3C2)cc1 [Example 8.01, 4-{(3aR,6aR)-5-[(E)-3-(4-trifluoromethoxy-phenyl)-acryloyl]-hexahydro-pyrrolo[3,4-c]pyrrole-2-carbonyl}-benzenesulfonamide] | 7.5
7 | Cn1cc(S(N)(=O)=O)cc1C(=O)N1C[C@H]2CN(C(=O)OCc3ccc(OC(F)(F)F)cc3)C[C@@H]2C1 [Example 1.14, (3 aS,6aS)-5-(1-methyl-4-sulfamoyl-1H-pyrrole-2-carbonyl)-hexahydro-pyrrolo[3,4-c]pyrrole-2-carboxylic acid 4-trifluoromethoxy-benzyl ester] | 64
8 | NS(=O)(=O)c1ccc(C(=O)N2C[C@H]3CN(C(=O)OCc4cc(Cl)cc(Cl)c4)C[C@H]3C2)cc1 [Example 1.05, (3aR,6aS)-3,5-dichlorobenzyl 5-(4-sulfamoylbenzoyl)hexahydropyrrolo[3,4-c]pyrrole-2(1H)-carboxylate] | 4
9 | NS(=O)(=O)c1ccc(C(=O)N2C[C@H]3CN(C(=O)OCc4ccc(OC(F)(F)F)cc4)C[C@@H]3C2)c(F)c1 [Example 1.19, (3 aS,6aS)-5-(2-fluoro-4-sulfamoyl-benzoyl)-hexahydro-pyrrolo[3,4-c]pyrrole-2-carboxylic acid 4-trifluoromethoxy-benzyl ester] | 4
10 | O=C(OCc1ccc(OC(F)(F)F)cc1)N1C[C@@H]2CN(C(=O)c3ccc(O)cc3)C[C@H]2C1 [Example 1.18, (3aS,6aS)-5-(4-hydroxy-benzoyl)-hexahydro-pyrrolo[3,4-c]pyrrole-2-carboxylic acid 4-trifluoromethoxy-benzyl ester] | 13
11 | CS(=O)(=O)Nc1ccc(C(=O)N2C[C@H]3CN(C(=O)OCc4cc(Cl)cc(Cl)c4)C[C@H]3C2)nc1 [Example 6, (3aR,6aS)-3,5-Dichlorobenzyl 5-(5-(methylsulfonamido)picolinoyl)hexahydropyrrolo[3,4-c]pyrrole-2(1H)-carboxylate] | 622
12 | CNS(=O)(=O)c1ccc(C(=O)N2C[C@H]3CN(C(=O)OCc4cc(Cl)cc(Cl)c4)C[C@H]3C2)cc1 [Example 1, (3aR,6aS)-3,5-Dichlorobenzyl 5-(4-(N-methylsulfamoyl)benzoyl)hexahydropyrrolo[3,4-c]pyrrole-2(1H)-carboxylate] | 1160
13 | NS(=O)(=O)c1ccc(C(=O)N2C[C@H]3CN(C(=O)OCc4cc(Cl)cc(Cl)c4)C[C@H]3C2)s1 [Example 1.04, (3aR,6aS)-3,5-dichlorobenzyl 5-(5-sulfamoylthiophene-2-carbonyl)hexahydropyrrolo[3,4-c]pyrrole-2(1H)-carboxylate] | 8
14 | CC(C)(C)C(=O)Nc1cc(C#N)ccc1COC(=O)N1C[C@@H]2CN(C(=O)c3ccc(S(N)(=O)=O)cc3F)C[C@H]2C1 [Example 1.25, (3aS,6aS)-5-(2-fluoro-4-sulfamoyl-benzoyl)-hexahydro-pyrrolo[3,4-c]pyrrole-2-carboxylic acid 4-cyano-2-(2,2-dimethyl-propionylamino)-benzyl ester] | 2
15 | O=C(OCc1ccc(OC(F)(F)F)cc1)N1C[C@@H]2CN(C(=O)c3ccc(=O)[nH]c3)C[C@H]2C1 [Example 1.12, (3aS,6aS)-5-(6-oxo-1,6-dihydro-pyridine-3-carbonyl)-hexahydro-pyrrolo[3,4-c]pyrrole-2-carboxylic acid 4-trifluoromethoxy-benzyl ester] | 440
16 | NS(=O)(=O)c1ccc(C(=O)N2C[C@H]3CN(C(=O)CCc4ccc(OC(F)(F)F)cc4)C[C@H]3C2)cc1 [Example 8.08, 4-{(3aS,6aR)-5-[3-(4-trifluoromethoxy-phenyl)-propionyl]-hexahydro-pyrrolo[3,4-c]pyrrole-2-carbonyl}-benzenesulfonamide] | 1.5
17 | COC(=O)c1ccc(C(=O)N2C[C@H]3CN(C(=O)OCc4cc(Cl)cc(Cl)c4)C[C@H]3C2)cc1 [Example 1.09, (3aR,6aS)-3,5-dichlorobenzyl 5-(4-(methoxycarbonyl)benzoyl)hexahydropyrrolo[3,4-c]pyrrole-2(1H)-carboxylate] | 118
18 | CC(C)(C)C(=O)Nc1cc(C#N)ccc1COC(=O)N1C[C@@H]2CN(C(=O)c3ccc(S(N)(=O)=O)c(F)c3)C[C@H]2C1 [Example 1.22, (3aS,6aS)-5-(3-fluoro-4-sulfamoyl-benzoyl)-hexahydro-pyrrolo[3,4-c]pyrrole-2-carboxylic acid 4-cyano-2-(2,2-dimethyl-propionylamino)-benzyl ester] | 7
19 | CC(C)(C)C(=O)Nc1cc(C#N)ccc1COC(=O)N1C[C@@H]2CN(C(=O)c3ccc(S(N)(=O)=O)cc3)C[C@H]2C1 [Example 1.24, (3aS,6aS)-5-(4-sulfamoyl-benzoyl)-hexahydro-pyrrolo[3,4-c]pyrrole-2-carboxylic acid 4-cyano-2-(2,2-dimethyl-propionylamino)-benzylester] | 12
20 | NS(=O)(=O)c1ccc(C(=O)N2C[C@H]3CCN(C(=O)OCc4cc(Cl)cc(Cl)c4)C[C@@H]3C2)cc1 (single isomer, unassigned) [Example 9B, (+)-trans-3,5-dichlorobenzyl 2-(4-sulfamoylbenzoyl)hexahydro-1H-pyrrolo[3,4-c]pyridine-5(6H)-carboxylate] | 5
21 | O=C(OCc1ccc(OC(F)(F)F)cc1)N1C[C@@H]2CN(C(=O)c3ccc(O)cn3)C[C@H]2C1 [Example 1.17, (3aS,6aS)-5-(5-hydroxy-pyridine-2-carbonyl)-hexahydro-pyrrolo[3,4-c]pyrrole-2-carboxylic acid 4-trifluoromethoxy benzyl ester] | 25
